Measurements from publication PMC7259758 (PLoS ONE, 2020).
Read-outs that look alike come from different tables or passages of the source.

Columns and labels:
[1] = test system: triple-exon skipping of MDM2 pre-mRNA in SK-MEL-2/Luc-MDM2 cells; experiment: TESLR (Triple Exon Skipping Luciferase Reporter) dose response; settings: for IC50: read-out: TESLR IC50 in inducing triple exon skipping; for EC50: read-out: TESLR EC50; for TESLR Maximum fold change: 4 hours
Protocol: SK-MEL-2/MDM2-Luc stable cells were cultured in MEM medium with Earle's salts and L-glutamine containing 1 mM sodium pyruvate, 10% FCS and 10 mM Hepes and plated at a density of 10,000/well in 96-well plates and incubated overnight at 37°C in 5% CO2. The following day, cells were treated with serial dilutions of compounds for 4 hrs, ONE-Glo reagents (Promega) were added to measure the luciferase activity on an EnVision plate reader. SD6 and 0.5% DMSO were used as positive and negative controls, respectively. Relative luminescent units were plotted against corresponding drug concentrations and fitted with a standard four parameter sigmoidal curve with GraphPad Prism.
The TESLR assay in SK-MEL-2/Luc-MDM2 cells with 4 hour treatment. SK-MEL-2/Luc-MDM2 stable cells were plated at a density of 20,000 cells/well in 96-well plates and incubated overnight at 37°C in 5% CO2. The following day, cells were treated with either 0.5% DMSO or serial dilution of hits identified from the library screen in 0.5% DMSO for 4 hours. ONE-Glo™ EX reagent (Promega) was added to measure the luciferase activity using an EnVision plate reader. Relative luminescent units were plotted against corresponding drug concentrations and fitted with a standard four parameter sigmoidal curve with GraphPad Prism.
SK-MEL-2/Luc-MDM2 stable cells were plated at a density of 20,000 cells/well in 96-well plates and incubated overnight at 37°C in 5% CO2. The following day, cells were treated with serial dilutions of the indicated compounds for 4 hours and ONE-Glo™ EX reagents (Promega) were added to measure the luciferase activity.

[2] = test system: MDM2 pre-mRNA splicing in Rh18 cells; experiment: RT-PCR confirmation of splicing changes, MDM2; assay type: cell-based; settings: 4 h, SD6 10 μM, compound 1 10 μM, compound 2 5 μM, compound 3 10 μM
Protocol: RH-18 cells were cultured in RPMI 1640 medium containing 10% FCS. Cells are all maintained in humidified incubator with 5% CO2 at 37°C. Rh18 cells were exposed to 0.5% DMSO or SD6 10 μM, Cpd1 10 μM, Cpd2 5 μM or Cpd3 10 μM for 4 h. Total RNA was extracted and converted to cDNA. PCR was performed using NEB Q5 Master Mix and specific primers listed below (Table 2) according to the manufacturer’s instruction and standard PCR protocols: 50 ng cDNA and 30 μl of the final reaction volume was used. PCR products were subjected to 3% agarose gel electrophoresis.
AS patterns were identified with compound treatment for MDM2 and RBM39 transcripts. Ubiquitin (UBQ) transcripts were used as a control since these are not spliced. […] Rh18 cells were treated with either DMSO control or compounds for 4 h. Total RNA was extracted and converted to cDNA. PCR was performed using corresponding primers and PCR products were subjected to 3% agarose gel electrophoresis.

[3] = test system: phosphorylation of SF3B1; experiment: Western blot of nuclear extracts, phosphor-SF3B1; settings: 4 h
Protocol: (§3) HCT116 cells were seeded at 3 million cells per 100 mm culture plate. The next day cells were treated with 5 μM or 10 μM of each compound for 4h and 8h. […] The pellet was snap frozen on dry ice and then thawed and spun at 12K rpm for 5 min, 4C. The supernatant was collected (nuclear extract) and protein concentrations determined using BCA Protein Assay Kit. […] The proteins were transferred to PVDF membrane using a wet transfer system. […] After the secondary antibody incubation, membranes were washed 4X with PBS containing 0.1% Tween-20 and 1X with PBS before imaging using the Li-Cor Odyssey imaging system.
(§4) Lanes 6 to 10 are nuclear extracts from Rh18 cells.

[4] = test system: phosphorylation of SR proteins; experiment: Western blot of nuclear extracts, phosphor-SR proteins; settings: HCT116 and Rh18 cells, 4 h; SD6 10 μM, compound 1 10 μM, compound 2 5 μM, compound 3 10 μM
Protocol: as §3, §4

[5] = target: T1, CDK2/cyclinA (h) (Homo sapiens, UniProt P24941); experiment: Radiometric protein kinase assay (Eurofins); assay type: biochemical; settings: ATP 45 μM
T1 construct: purchased Eurofins, Dundee, Scotland
Protocol: Enzymatic biochemical activities were evaluated in radiometric protein kinase assays (Eurofins, Dundee, Scotland). Kinases are incubated with buffer, substrate and [γ-^33P]-ATP (specific activity approx. 500 cpm/pmol, concentration as required). The reaction is initiated by the addition of the MgATP mix. After incubation for 40 minutes at room temperature, the reaction is stopped by the addition of 3% phosphoric acid solution. 10 μL of the reaction is then spotted onto a P30 filtermat and washed three times for 5 minutes in 75 mM phosphoric acid and once in methanol prior to drying and scintillation counting. All compounds are prepared to 50x final assay concentration in 100% DMSO. Positive control wells contain all components of the reaction with 2% DMSO. Blank wells contain all components of the reaction, with a reference inhibitor replacing the compound of interest. […] Compounds were screened at 1 μM in duplicate or tested at 10 concentrations at half log dilution starting from 10 μM in singlicate. Dose response curves were fitted with four parameter logistic curve to obtain IC50 values.

[6] = target: T2, AKT3 (Homo sapiens, UniProt Q9Y243); experiment: Radiometric protein kinase assay (Eurofins); assay type: biochemical; settings: ATP 45 μM
T2 construct: purchased Eurofins, Dundee, Scotland
Protocol: (§1) Enzymatic biochemical activities were evaluated in radiometric protein kinase assays (Eurofins, Dundee, Scotland). Kinases are incubated with buffer, substrate and [γ-^33P]-ATP (specific activity approx. 500 cpm/pmol, concentration as required). The reaction is initiated by the addition of the MgATP mix. After incubation for 40 minutes at room temperature, the reaction is stopped by the addition of 3% phosphoric acid solution. 10 μL of the reaction is then spotted onto a P30 filtermat and washed three times for 5 minutes in 75 mM phosphoric acid and once in methanol prior to drying and scintillation counting. All compounds are prepared to 50x final assay concentration in 100% DMSO. Positive control wells contain all components of the reaction with 2% DMSO. Blank wells contain all components of the reaction, with a reference inhibitor replacing the compound of interest. Each kinase is assigned a standard assay concentration of ATP within 20 μM of its apparent Km. Compounds were screened at 1 μM in duplicate or tested at 10 concentrations at half log dilution starting from 10 μM in singlicate. Dose response curves were fitted with four parameter logistic curve to obtain IC50 values. […]
(§2) Staurosporine is used as reference for all tested enzymes except for SRPK3 (reference inhibitor: K-252a. Nocardiopsis sp), NEK2 (reference inhibitor: […]), and CK2, CK2α2, MAPK1, MAPK2 (reference inhibitor: PKR Inhibitor). See Table 1 below for additional details.

[7] = target: T3, CK2 (h) (Homo sapiens, UniProt P68400); experiment: Radiometric protein kinase assay (Eurofins); assay type: biochemical; settings: ATP 10 μM
T3 construct: purchased Eurofins, Dundee, Scotland
Protocol: as §1, §2

[8] = target: T4, CK2α2 (h) (Homo sapiens, UniProt P19784); experiment: Radiometric protein kinase assay (Eurofins); assay type: biochemical; settings: ATP 10 μM; read-out: CK2a2 IC50
T4 construct: purchased Eurofins, Dundee, Scotland
Protocol: as §1, §2

[9] = target: T5, CLK1(h) (Homo sapiens, UniProt P49759); experiment: Radiometric protein kinase assay (Eurofins); assay type: biochemical; settings: ATP 10 μM
T5 construct: purchased Eurofins, Dundee, Scotland
Protocol: as §1, §2

[10] = target: T6, CLK3(h) (Homo sapiens, UniProt P49761); experiment: Radiometric protein kinase assay (Eurofins); assay type: biochemical; settings: ATP 90 μM
T6 construct: purchased Eurofins, Dundee, Scotland
Protocol: as §1, §2

[11] = target: T7, CLK4(h) (Homo sapiens, UniProt Q9HAZ1); experiment: Radiometric protein kinase assay (Eurofins); assay type: biochemical; settings: ATP 10 μM
T7 construct: purchased Eurofins, Dundee, Scotland
Protocol: as §1, §2

[12] = target: T8, DYRK1A(h) (Homo sapiens, UniProt Q13627); experiment: Radiometric protein kinase assay (Eurofins); assay type: biochemical; settings: ATP 45 μM
T8 construct: purchased Eurofins, Dundee, Scotland
Protocol: as §1, §2

[13] = target: T9, DYRK1B (h) (Homo sapiens, UniProt Q9Y463); experiment: Radiometric protein kinase assay (Eurofins); assay type: biochemical; settings: ATP 45 μM
T9 construct: purchased Eurofins, Dundee, Scotland
Protocol: as §1, §2

[14] = target: T10, DYRK2 (h) (Homo sapiens, UniProt Q92630); experiment: Radiometric protein kinase assay (Eurofins); assay type: biochemical; settings: ATP 15 μM
T10 construct: purchased Eurofins, Dundee, Scotland
T10 sequence (Q92630 1-601): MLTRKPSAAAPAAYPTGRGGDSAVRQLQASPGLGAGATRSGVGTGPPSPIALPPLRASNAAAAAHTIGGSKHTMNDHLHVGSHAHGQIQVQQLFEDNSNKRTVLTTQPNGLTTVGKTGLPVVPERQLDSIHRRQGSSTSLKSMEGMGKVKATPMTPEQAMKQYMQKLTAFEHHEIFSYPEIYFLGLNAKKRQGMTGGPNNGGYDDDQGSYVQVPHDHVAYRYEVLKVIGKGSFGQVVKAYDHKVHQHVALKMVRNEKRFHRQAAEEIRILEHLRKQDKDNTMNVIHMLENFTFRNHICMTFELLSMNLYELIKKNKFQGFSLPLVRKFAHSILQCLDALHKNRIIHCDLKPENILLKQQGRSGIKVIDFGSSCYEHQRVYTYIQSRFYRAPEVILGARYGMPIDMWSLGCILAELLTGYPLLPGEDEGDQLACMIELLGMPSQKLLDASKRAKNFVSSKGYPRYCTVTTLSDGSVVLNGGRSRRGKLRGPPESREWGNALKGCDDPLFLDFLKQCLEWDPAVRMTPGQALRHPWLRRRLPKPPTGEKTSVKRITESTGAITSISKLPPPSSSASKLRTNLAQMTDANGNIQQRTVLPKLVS
Protocol: as §1, §2

[15] = target: T11, GSK3α(h) (Homo sapiens, UniProt P49840); experiment: Radiometric protein kinase assay (Eurofins); assay type: biochemical; settings: ATP 10 μM
T11 construct: purchased Eurofins, Dundee, Scotland
Protocol: as §1, §2

[16] = target: T12, MAPK1 (h) (Homo sapiens, UniProt P27361); experiment: Radiometric protein kinase assay (Eurofins); assay type: biochemical
T12 construct: purchased Eurofins, Dundee, Scotland
Protocol: as §1, §2

[17] = target: T13, MAPK2 (h) (Homo sapiens, UniProt P28482); experiment: Radiometric protein kinase assay (Eurofins); assay type: biochemical; settings: ATP 155 μM
T13 construct: purchased Eurofins, Dundee, Scotland
Protocol: as §1, §2

[18] = target: T14, SRPK1(h) (Homo sapiens, UniProt Q96SB4); experiment: Radiometric protein kinase assay (Eurofins); assay type: biochemical; settings: ATP 10 μM
T14 construct: purchased Eurofins, Dundee, Scotland
Protocol: as §1, §2

[19] = target: T15, SRPK2 (h) (Homo sapiens, UniProt P78362); experiment: Radiometric protein kinase assay (Eurofins); assay type: biochemical; settings: ATP 10 μM
T15 construct: purchased Eurofins, Dundee, Scotland
Protocol: as §1, §2

[20] = target: T16, SRPK3 (h) (Homo sapiens, UniProt Q9UPE1); experiment: Radiometric protein kinase assay (Eurofins); assay type: biochemical; settings: ATP 15 μM
T16 construct: purchased Eurofins, Dundee, Scotland
Protocol: as §1, §2

[21] = target: T17, SF3B1 (Homo sapiens, UniProt O75533+Q7RTV0); experiment: Competitive antagonist assay (TESLR in the presence of SD6 or hit compound); assay type: cell-based; settings: 6 μM compound for one hour, then serial dilutions of sudemycinol C for another 4 hours
T17 construct: endogenous in cells
Protocol: SK-MEL-2/Luc-MDM2 stable cells were plated at a density of 20,000 cells/well in 96-well plates and incubated overnight at 37°C in 5% CO2.[27, 28] The following day, cells were treated with 14 analogs using serial dilution for one hour. The list of compounds screened as potential TESLR antagonists are show in SI file. After one-hour pre-treatment, 4 μM of SD6 were added to the pre-treated cells for another 4 hours. Either 0.5% DMSO or serial dilutions of SD6 were used to treat cells for 4 hours as controls. At the end of incubation time, ONE-Glo™ EX reagents (Promega) were added to measure the luciferase activity. […]
Fig 6 Competitive antagonist assay. (Left Panel) The assay that identified two antagonists of SD6 activity in the TESLR screen, which are useful for the determination of SF3B1 binding. Relative luminescent units were plotted against corresponding drug concentrations and fitted with a standard four parameter sigmoidal curve with GraphPad Prism. (Right Panel) The structures of the antagonists and SD6. See SI for chemistry details.
. SK-MEL-2/Luc-MDM2 stable cells were plated at a density of 20000/well in 96-well plates and incubated overnight at 37°C in 5% CO2. […]. After one-hour pre-treatment, serial dilutions of the sudemycinol C were added to the pre-treated cells for another 4 hours. […]. At the end of incubation time, ONE-Glo™ EX reagents (Promega) were added to measure the luciferase activity. […]. DR: dose response.

[22] = SK-MEL-2/Luc-MDM2 cells, luciferase activity

T3 sequence (P68400 whole entry): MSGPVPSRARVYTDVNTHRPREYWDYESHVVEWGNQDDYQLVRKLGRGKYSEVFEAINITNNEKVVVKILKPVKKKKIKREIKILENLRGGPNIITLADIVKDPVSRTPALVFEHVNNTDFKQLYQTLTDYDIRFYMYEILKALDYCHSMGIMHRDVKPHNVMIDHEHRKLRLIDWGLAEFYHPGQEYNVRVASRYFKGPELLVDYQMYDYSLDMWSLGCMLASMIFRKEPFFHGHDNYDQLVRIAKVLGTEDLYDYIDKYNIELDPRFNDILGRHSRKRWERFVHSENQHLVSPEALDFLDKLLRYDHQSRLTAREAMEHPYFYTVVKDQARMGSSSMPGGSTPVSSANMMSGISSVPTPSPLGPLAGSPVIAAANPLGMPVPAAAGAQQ
T3 sequence (P67870 whole entry partner): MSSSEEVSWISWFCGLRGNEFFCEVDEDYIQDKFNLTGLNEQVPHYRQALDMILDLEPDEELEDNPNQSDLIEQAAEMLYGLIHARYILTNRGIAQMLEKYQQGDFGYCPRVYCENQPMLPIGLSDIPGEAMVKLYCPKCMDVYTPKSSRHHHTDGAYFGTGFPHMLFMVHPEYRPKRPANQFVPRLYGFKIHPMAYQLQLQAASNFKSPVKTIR
T13 sequence (P28482 whole entry): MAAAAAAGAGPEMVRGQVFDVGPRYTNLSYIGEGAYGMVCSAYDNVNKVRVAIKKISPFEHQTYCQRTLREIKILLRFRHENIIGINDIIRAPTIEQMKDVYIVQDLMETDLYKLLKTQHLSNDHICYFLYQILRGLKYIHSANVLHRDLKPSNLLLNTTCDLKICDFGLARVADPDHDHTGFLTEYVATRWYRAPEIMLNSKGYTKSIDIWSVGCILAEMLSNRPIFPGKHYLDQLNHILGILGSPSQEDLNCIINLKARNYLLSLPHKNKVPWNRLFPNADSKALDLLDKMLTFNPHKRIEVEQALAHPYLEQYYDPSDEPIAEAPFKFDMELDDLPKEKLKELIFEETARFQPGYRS
T14 sequence (Q96SB4 whole entry): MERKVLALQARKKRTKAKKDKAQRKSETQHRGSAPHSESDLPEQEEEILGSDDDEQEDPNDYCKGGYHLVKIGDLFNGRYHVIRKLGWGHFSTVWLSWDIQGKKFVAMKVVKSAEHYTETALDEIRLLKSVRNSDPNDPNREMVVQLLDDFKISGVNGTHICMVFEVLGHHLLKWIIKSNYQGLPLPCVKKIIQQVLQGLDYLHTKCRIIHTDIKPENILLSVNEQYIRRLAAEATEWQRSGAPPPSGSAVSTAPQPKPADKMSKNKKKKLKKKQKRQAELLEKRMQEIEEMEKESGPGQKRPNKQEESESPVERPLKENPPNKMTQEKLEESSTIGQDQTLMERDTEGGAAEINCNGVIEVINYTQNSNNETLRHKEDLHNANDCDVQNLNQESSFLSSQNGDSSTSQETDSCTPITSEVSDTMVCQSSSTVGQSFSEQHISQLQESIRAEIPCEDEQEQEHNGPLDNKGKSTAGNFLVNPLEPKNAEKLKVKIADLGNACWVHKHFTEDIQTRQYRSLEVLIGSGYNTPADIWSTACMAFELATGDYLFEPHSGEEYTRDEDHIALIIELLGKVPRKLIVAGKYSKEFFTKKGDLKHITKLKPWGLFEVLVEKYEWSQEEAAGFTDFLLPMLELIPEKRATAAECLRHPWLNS
T9 sequence (Q9Y463 whole entry): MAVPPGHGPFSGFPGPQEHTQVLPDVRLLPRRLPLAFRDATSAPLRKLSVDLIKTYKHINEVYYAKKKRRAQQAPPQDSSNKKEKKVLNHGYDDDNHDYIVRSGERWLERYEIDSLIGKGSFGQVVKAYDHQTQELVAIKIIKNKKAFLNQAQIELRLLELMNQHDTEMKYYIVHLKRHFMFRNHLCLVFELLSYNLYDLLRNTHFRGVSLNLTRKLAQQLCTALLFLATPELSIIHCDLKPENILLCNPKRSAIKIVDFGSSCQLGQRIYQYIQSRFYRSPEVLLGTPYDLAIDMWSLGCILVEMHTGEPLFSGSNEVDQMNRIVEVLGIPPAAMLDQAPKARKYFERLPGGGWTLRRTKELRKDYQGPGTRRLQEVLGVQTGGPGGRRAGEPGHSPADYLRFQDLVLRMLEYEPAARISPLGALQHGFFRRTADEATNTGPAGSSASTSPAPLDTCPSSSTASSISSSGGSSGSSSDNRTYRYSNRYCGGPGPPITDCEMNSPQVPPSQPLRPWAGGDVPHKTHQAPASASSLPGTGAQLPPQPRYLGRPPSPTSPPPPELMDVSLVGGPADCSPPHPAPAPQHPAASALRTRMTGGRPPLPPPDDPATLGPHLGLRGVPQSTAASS
T6 sequence (P49761 whole entry): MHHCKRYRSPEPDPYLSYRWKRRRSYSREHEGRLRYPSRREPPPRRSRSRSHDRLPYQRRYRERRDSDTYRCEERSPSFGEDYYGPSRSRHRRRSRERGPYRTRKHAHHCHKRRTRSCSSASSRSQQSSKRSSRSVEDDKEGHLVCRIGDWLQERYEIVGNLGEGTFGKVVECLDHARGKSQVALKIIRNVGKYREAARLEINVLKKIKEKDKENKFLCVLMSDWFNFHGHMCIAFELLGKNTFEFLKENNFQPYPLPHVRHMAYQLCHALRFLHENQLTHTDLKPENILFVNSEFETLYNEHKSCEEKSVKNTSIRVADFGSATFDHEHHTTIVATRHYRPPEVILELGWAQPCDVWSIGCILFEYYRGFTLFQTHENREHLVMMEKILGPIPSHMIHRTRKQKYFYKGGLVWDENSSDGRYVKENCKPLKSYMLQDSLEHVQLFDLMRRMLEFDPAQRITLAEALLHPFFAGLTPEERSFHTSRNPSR
T16 sequence (Q9UPE1 whole entry): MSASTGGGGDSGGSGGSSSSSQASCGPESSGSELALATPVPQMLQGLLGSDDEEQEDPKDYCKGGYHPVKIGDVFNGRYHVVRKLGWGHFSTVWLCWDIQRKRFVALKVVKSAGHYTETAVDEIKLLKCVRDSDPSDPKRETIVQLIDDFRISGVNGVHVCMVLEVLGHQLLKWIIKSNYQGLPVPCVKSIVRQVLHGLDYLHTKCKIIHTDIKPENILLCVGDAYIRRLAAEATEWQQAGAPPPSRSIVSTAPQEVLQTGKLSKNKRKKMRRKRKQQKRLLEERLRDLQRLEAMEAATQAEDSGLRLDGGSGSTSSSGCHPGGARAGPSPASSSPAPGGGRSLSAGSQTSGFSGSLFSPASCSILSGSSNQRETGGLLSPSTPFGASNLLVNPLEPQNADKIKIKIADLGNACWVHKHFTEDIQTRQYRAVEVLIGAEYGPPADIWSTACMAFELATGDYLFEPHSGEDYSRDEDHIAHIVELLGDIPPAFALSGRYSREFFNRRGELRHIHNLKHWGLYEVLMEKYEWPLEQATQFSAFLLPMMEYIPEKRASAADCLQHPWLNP
T7 sequence (Q9HAZ1 whole entry): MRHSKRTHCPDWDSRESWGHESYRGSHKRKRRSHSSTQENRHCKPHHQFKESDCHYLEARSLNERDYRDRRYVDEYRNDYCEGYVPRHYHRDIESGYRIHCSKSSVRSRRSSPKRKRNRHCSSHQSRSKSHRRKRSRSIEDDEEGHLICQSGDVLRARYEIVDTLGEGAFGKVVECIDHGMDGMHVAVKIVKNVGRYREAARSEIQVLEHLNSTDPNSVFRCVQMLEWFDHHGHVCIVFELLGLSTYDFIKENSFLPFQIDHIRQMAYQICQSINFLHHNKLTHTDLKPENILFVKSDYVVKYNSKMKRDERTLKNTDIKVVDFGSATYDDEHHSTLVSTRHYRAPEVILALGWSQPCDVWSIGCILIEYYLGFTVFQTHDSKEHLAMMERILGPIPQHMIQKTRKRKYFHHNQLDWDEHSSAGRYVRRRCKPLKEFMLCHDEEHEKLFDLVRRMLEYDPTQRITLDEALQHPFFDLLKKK
T11 sequence (P49840 whole entry): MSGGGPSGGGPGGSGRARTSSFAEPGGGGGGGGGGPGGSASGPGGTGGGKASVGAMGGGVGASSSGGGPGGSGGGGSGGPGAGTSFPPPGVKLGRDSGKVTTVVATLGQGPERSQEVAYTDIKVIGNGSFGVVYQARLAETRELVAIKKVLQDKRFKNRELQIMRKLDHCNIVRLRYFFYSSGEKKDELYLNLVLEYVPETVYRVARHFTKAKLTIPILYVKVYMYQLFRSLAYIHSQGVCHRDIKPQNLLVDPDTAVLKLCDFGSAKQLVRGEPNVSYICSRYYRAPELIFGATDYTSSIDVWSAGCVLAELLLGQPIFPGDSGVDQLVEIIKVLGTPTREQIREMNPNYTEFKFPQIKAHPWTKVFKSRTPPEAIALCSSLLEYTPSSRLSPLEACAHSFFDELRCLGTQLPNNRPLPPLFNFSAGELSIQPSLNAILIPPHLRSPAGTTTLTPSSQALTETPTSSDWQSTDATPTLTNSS
T15 sequence (P78362 whole entry): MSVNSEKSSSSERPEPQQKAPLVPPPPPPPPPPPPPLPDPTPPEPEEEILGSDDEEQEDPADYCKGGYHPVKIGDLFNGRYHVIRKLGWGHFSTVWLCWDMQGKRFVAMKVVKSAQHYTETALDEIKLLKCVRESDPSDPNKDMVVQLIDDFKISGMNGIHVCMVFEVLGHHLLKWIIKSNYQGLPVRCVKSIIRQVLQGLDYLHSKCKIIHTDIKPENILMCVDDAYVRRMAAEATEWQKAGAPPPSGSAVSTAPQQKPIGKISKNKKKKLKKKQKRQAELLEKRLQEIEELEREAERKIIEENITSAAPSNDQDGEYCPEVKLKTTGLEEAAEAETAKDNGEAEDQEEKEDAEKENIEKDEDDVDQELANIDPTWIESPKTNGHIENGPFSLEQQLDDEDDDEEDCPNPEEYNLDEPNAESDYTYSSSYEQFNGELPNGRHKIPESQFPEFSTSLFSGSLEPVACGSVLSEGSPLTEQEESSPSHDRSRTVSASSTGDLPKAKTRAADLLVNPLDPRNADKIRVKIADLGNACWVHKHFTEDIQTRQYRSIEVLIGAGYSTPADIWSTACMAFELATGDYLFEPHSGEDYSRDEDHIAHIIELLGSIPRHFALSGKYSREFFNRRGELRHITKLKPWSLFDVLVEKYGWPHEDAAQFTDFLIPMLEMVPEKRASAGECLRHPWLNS

CN1CC[C@H](c2c(O)cc(O)c3c(=O)cc(-c4ccccc4Cl)oc23)[C@H](O)C1 [flavopiridol]
IC50 ([1]; Homo sapiens, SK-MEL-2, 4 h): > 10 µM

CC(C)(C)c1cnc(CSc2cnc(NC(=O)C3CCNCC3)s2)o1 [SNS-032]
IC50 ([1]; Homo sapiens, SK-MEL-2, 4 h): > 10 µM

CNC(=O)OC(C)C=CC(=O)NC1CCC(CC=C(C)C=CC2CC3(CO3)CC(C)(C)O2)CC1 (stereo not drawn) [SD6, sudemycin D6]
MDM2 alternative splicing (AS) pattern by RT-PCR [2]: dominant AS isoform at size of 1019 bp
Effect on phosphorylation of SF3B1 (immunoblot) ([3]; HCT116 and Rh18 cells, SD6 10 μM, compound 1 10 μM, compound 2 5 μM): did inhibit the phosphorylation of SF3B1
Effect on phosphorylation of SR proteins (immunoblot) [4]: did not inhibit the phosphorylation of SR proteins
EC50 ([1]; Homo sapiens, SK-MEL-2, 4 h): 0.862 µM
TESLR Maximum fold change [1, 22]: 28.3

CN(c1ncccc1CNc1nc(Nc2ccc3c(c2)CC(=O)N3)ncc1C(F)(F)F)S(C)(=O)=O [Compound 3, PF-562271]
IC50 [5]: 0.203 µM
AKT3 IC50 [6]: NA (NA: Not Active (less than 50% inhibition at 1 micromolar))
CK2 IC50 [7]: NA (NA: Not Active (less than 50% inhibition at 1 micromolar))
IC50 [8]: 0.374 µM
IC50 [9]: 0.141 µM
CLK3 IC50 [10]: NA (NA: Not Active (less than 50% inhibition at 1 micromolar))
IC50 [11]: 0.155 µM
DYRK1A IC50 [12]: NA (NA: Not Active (less than 50% inhibition at 1 micromolar))
DYRK1B IC50 [13]: NA (NA: Not Active (less than 50% inhibition at 1 micromolar))
DYRK2 IC50 [14]: NA (NA: Not Active (less than 50% inhibition at 1 micromolar))
IC50 [15]: 0.221 µM
MAPK1 IC50 [16]: NA (NA: Not Active (less than 50% inhibition at 1 micromolar))
IC50 [17]: 0.863 µM
SRPK1 IC50 [18]: NA (NA: Not Active (less than 50% inhibition at 1 micromolar))
SRPK2 IC50 [19]: NA (NA: Not Active (less than 50% inhibition at 1 micromolar))
SRPK3 IC50 [20]: NA (NA: Not Active (less than 50% inhibition at 1 micromolar))
Antagonism of the compound's TESLR activity by sudemycinol C [21]: did not antagonize
MDM2 alternative splicing (AS) pattern by RT-PCR [2]: dominant MDM2 transcript (the same size as the DMSO control) and an AS isoform of 785 bp
Effect on phosphorylation of SF3B1 (immunoblot) ([3]; HCT116 cells, 10 μM): inhibited the phosphorylation of SF3B1 protein in HCT116 cells
EC50 ([1]; SK-MEL-2/Luc-MDM2 cells, 4 hour treatment, luciferase activity): 5.56 µM

O=C(O)c1ccc2c(c1)nc(Nc1cccc(Cl)c1)c1ccncc12 [silmitasertib]
EC50 ([1]; Homo sapiens, SK-MEL-2, 4 h): 19.9 µM
IC50 ([1]; Homo sapiens, SK-MEL-2, 4 h): 10 to 300 µM
TESLR Maximum fold change [1, 22]: 31.5
